# Assays:
# SFB193 and SFB216 = assay: Glyphosate spray of plants from R2 seeds at V4 and V8 stages; type: in vivo, sunflower; conditions: 32 and 64 oz/acre; V4 and V8 stages of plant development
# Description: (§1) Transgenic R1 sunflower plants (from strain HA300B), transformed with pWRG4750, were transformed and regenerated as described in Examples 5-9 and tested in greenhouse. About 5000 R2 seeds of two independent transformants, SFB193 and SFB216, were planted. Some plants were sprayed with Glyphosate at V-4 and V-8 leaf stages at 0 and 32 oz/acre level. For the other plants, glyphosate treatment rates, at V4 stage were 0-, 32-, or 64 oz./acre. The sunflower plants were assessed for resistance to glyphosate.
# SFB193 = assay: Glyphosate spray in greenhouse, transgenic sunflower; type: in vivo
# Description: (§2) Transgenic R1 sunflower plants (from strain HA300B), transformed with pWRG4750, were transformed and regenerated as described in Examples 5-9 and tested in greenhouse. About 5000 R2 seeds of two independent transformants, SFB193 and SFB216, were planted. […] […] The sunflower plants were assessed for resistance to glyphosate.
# (§3) In addition, the glyphosate-treated transgenic plants were scored for normal head development.
# HA300B (Control) = assay: Glyphosate spray in greenhouse, non-transgenic control; type: in vivo, sunflower; conditions: for Tolerance to glyphosate spray: greenhouse, about v6 to v10 leaf stage
# Description: as §2, §3
# sunflower cotyledons = assay: Assessment of selection agents (GUS assay of transformed cotyledons and shoots); type: cell-based, Helianthus annuus L.; conditions: glyphosate 0.05->0.1->0.05 mM, paromomycin 25->50->25 mg/L, kanamycin 50 mg/L; for GUS Positive/Total cotyledons assayed: destructive GUS assays at different stages
# Description: After the post-transformation delay, the transformed cotyledons were transferred through a series of selection cultures containing low-high-low concentrations of selective agent. The cotyledons were first placed in Selection media (see Table 1) containing 0.05 mM glyphosate for about 10 days. Plates were incubated at 23° C., low light, and 18/6 hour photoperiod. The cotyledons were then transferred to a second selection culture containing Selection media +0.1 mM glyphosate for about 2 additional weeks. Finally, the cotyledons were placed in a third selection culture containing Selection media +0.05 mM glyphosate for about 7 to 14 days. In addition to glyphosate, several other selection agents were tested (Table 4).
# SFB216 = assay: Glyphosate spray in greenhouse, transgenic sunflower; type: in vivo
# Description: as §1, with “For the other plants, glyphosate treatment rates, at V4 stage were 0-, 32-, or 64 oz./acre.” left out
# as §3
SMILES,Vegetative tolerance to glyphosate spray (SFB193 and SFB216),Normal Sunflower Heads After Treatment With Glyphosate (SFB193; 32 oz./acre) [%],Normal Sunflower Heads After Treatment With Glyphosate (SFB193; 64 oz./acre) [%],Normal Sunflower Heads After Treatment With Glyphosate (SFB193; 96 oz./acre) [%],Normal Sunflower Heads After Treatment With Glyphosate (SFB193; 128 oz./acre) [%],Normal Sunflower Heads After Treatment With Glyphosate (HA300B (Control); 32 oz./acre) [%],Tolerance to glyphosate spray (HA300B (Control); 32 oz./acre),Normal Sunflower Heads After Treatment With Glyphosate (HA300B (Control); 64 oz./acre) [%],Tolerance to glyphosate spray (HA300B (Control); 64 oz./acre),Normal Sunflower Heads After Treatment With Glyphosate (HA300B (Control); 96 oz./acre) [%],Normal Sunflower Heads After Treatment With Glyphosate (HA300B (Control); 128 oz./acre) [%],GUS Positive/Total cotyledons assayed (sunflower cotyledons),GUS Positive Shoots (sunflower cotyledons),Normal Sunflower Heads After Treatment With Glyphosate (SFB216; 32 oz./acre) [%],Normal Sunflower Heads After Treatment With Glyphosate (SFB216; 64 oz./acre) [%],Normal Sunflower Heads After Treatment With Glyphosate (SFB216; 96 oz./acre) [%],Normal Sunflower Heads After Treatment With Glyphosate (SFB216; 128 oz./acre) [%]
O=C(O)CNCP(=O)(O)O [Glyphosate],excellent vegetative tolerance,56,79,50,25,0,No Tolerance,0,No Tolerance,0,0,63/80,7,70,32,14,0
NC[C@@H]1O[C@H](O[C@H]2[C@@H](O)[C@H](O[C@@H]3[C@@H](O)[C@H](N)C[C@H](N)[C@H]3O[C@H]3O[C@H](CO)[C@@H](O)[C@H](O)[C@H]3N)O[C@@H]2CO)[C@H](N)[C@@H](O)[C@@H]1O [Paromomycin],,,,,,,,,,,,15/30,7,,,,
NC[C@H]1O[C@H](O[C@H]2[C@H](O)[C@@H](O[C@H]3O[C@H](CO)[C@@H](O)[C@H](N)[C@H]3O)[C@H](N)C[C@@H]2N)[C@H](O)[C@@H](O)[C@@H]1O [Kanamycin],,,,,,,,,,,,59/64,16,,,,
